The first test deals with T1, Savinase (Lederbergia lenta, UniProt P29600).
T1 construct: Novozymes A/S
T1 sequence (P29600 1-269): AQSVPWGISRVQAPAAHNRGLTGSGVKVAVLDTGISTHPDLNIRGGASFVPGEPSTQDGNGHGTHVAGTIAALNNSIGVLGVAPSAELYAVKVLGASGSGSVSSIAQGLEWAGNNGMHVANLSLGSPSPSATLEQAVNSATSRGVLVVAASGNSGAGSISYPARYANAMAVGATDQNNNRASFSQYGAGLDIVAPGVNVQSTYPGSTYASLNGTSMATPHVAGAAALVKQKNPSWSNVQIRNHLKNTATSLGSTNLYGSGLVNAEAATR
Nature of the test: biochemical.
Conditions: not given
The procedure:
The inhibition constant KI=[E][I]/[EI] for the inhibition of Savinase was determined using standard methods under the following conditions:
Substrate: Succinyl-Alanine-Alanine-Proline-para-nitro-anilide=SAAPFpNA (Sigma S-7388).
Buffer: 0.1 M phosphate buffer pH 7.5
Enzyme concentration in assay≈1×10^−8 M
The initial rate of substrate hydrolysis was determined with and without inhibitor at nine substrate concentrations in the range of 0.01 mM to 2 mM using an automated spectrophotometer.
The inhibition constant KI was determined using Sigma Plot 9.0, Enzyme Kinetics Module 1.1
Chain of subtilisin (P00780 106-379): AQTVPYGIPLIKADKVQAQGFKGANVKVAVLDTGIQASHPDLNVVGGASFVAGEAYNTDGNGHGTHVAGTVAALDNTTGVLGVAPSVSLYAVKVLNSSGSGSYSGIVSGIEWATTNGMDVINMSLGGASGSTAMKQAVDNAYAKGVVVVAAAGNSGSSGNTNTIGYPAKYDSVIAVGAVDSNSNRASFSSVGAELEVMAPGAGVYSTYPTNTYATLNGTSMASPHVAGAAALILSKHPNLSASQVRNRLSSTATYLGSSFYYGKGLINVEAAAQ
Molecule `O=C(O)Cc1cccc(Cl)c1` [3-chlorophenylacetic acid] registered a Ki of 7 mM.

Consider `O=C(O)Cc1ccccc1` [Phenylacetic acid], for which the Ki was found to be 10 mM.

Molecule `O=Cc1ccc(O)c(O)c1` [3,4-dihydrozybenzaldehyde] yielded a Ki of 11 mM.

Take `O=C(O)c1ccccc1` [Benzoic Acid]: the Ki is 22 mM.

`O=C(O)c1cccc(Cl)c1` [3-chlorobenzoic acid] came in with a Ki of 4 mM.

`O=C(O)Cc1ccccc1Cl` [2-chlorophenylacetic acid] had a Ki of 11 mM.

Consider `Nc1ccccc1C(=O)O` [2-aminobenzoic acid], for which affinity was put at a Ki of 16 mM.

Staying with this test, now noted: Example 1; 0.1 M phosphate buffer pH 7.5, 25° C., substrate SAAPFpNA 0.01-2 mM, enzyme ≈1×10^−8 M; read-out: Ki.
As to `O=Cc1ccc(C(=O)O)cc1` [4-formylbenzoic acid], the Ki stood at 25 mM.

`O=C(O)c1cc(Cl)cc(Cl)c1` [3,5-dichorobenzoic acid]: the inhibition constant (Ki) is 2 mM.

With `O=C(O)CCc1ccccc1` [Phenylpropionic acid], the inhibition constant (Ki) was 9 mM.

Consider `O=C(O)c1ccc(C(=O)O)cc1` [Terephtalic acid (4-carboxybenzoic acid)], for which the Ki was 99 mM.

Staying with this test, now noted: Example 2, acids; 0.1 M phosphate buffer pH 7.5, 25° C., substrate SAAPFpNA 0.01-2 mM, enzyme ≈1×10^−8 M; read-out: Ki.
As to `O=C(O)c1cccc(Br)c1` [3-bromobenzoic acid], the Ki worked out at 6 mM.

For `O=C(O)c1ccccc1Cl` [2-chlorobenzoic acid], the Ki turned out to be 16 mM.

Regarding `O=C(O)Cc1ccc(Cl)cc1` [4-chlorophenylacetic acid], the Ki came to 11 mM.

On to `O=Cc1cccc(C(=O)O)c1` [3-formylbenzoic acid], for which the inhibition constant Ki amounted to 27 mM.

With `O=C(O)c1cccc([N+](=O)[O-])c1` [3-nitrobenzoic acid], the inhibition constant (Ki) worked out at 9 mM.

In the case of `O=C(O)c1cccc(F)c1` [3-fluorobenzoic acid], the inhibition constant (Ki) was 17 mM.

Take `O=C(O)c1cccc(CCl)c1` [3-(chloromethyl)benzoic acid]: the Ki worked out at 32 mM.

As for `Nc1ccc(C(=O)O)cc1` [4-aminobenzoic acid], the inhibitory constant (Ki) was 82 mM.

`O=C(O)c1cc(O)cc(O)c1` [3,5-dihydroxybenzoic acid]: the Ki worked out at 76 mM.

On to `O=C(O)c1cccc(O)c1` [3-hydroxybenzoic acid], for which the Ki was determined as 29 mM.

With `Nc1cccc(C(=O)O)c1` [3-aminobenzoic acid], the Ki amounted to 43 mM.

For the molecule `O=C(O)CCc1cccc(Cl)c1` [3-(3-chlorophenyl)propionic acid], the inhibition constant Ki came out at 5 mM.

As for `O=C(O)CCCc1ccccc1` [4-phenylbutyric acid], the Ki stood at 19 mM.

Consider `O=C(O)CCc1ccc(Cl)cc1` [3-(4-chlorophenyl)propionic acid], for which the inhibition constant Ki is 10 mM.

Consider `O=C(O)c1cccc(I)c1` [3-iodobenzoic acid], for which the inhibition constant Ki was 9 mM.

Staying with this test, now noted: Example 3, aldehydes; 0.1 M phosphate buffer pH 7.5, 25° C., substrate SAAPFpNA 0.01-2 mM, enzyme ≈1×10^−8 M; read-out: Ki.
Turning to `O=Cc1cccc(O)c1` [3-hydroxybenzaldehyde], the inhibitory constant (Ki) amounted to 16 mM.

A further test has as its target subtilisin (Bacillus licheniformis, UniProt P00780).
Test: not given
The note with it: Keller et al, Biochem. Biophys. Res. Com. 176, 1991; cited from earlier work.
In the case of `OB(O)c1cc(Cl)cc(Cl)c1` [3,5-dichlorophenylboronic acid], the “capacity as subtilisin inhibitor” value is “particularly effective”.

For `CB(O)O` [methylboronic acid], the “capacity as subtilisin inhibitor” value is “poorest inhibitor”.

A further test deals with proteolytic enzymes.
Test: not given
The note with it: as claimed in WO 92/19707; cited from earlier work.
As for `CC(=O)Nc1cccc(B(O)O)c1` [acetamidophenyl boronic acid], the “inhibitor of proteolytic enzymes” value is recorded as “superior inhibitor”.

Broadly, the Ki is the equilibrium dissociation constant of an inhibitor or competing ligand from its target.
